Drawing on PubChem BioAssay (NCI), this text covers TGI and GI50 for twelve compounds.

Test systems include MDA-MB-435; 786-0 renal; HL-60(TB) leukemia; TK-10 renal; IGROV1 ovarian; OVCAR-8 ovarian; HCT-15 colon; SR leukemia; SF-295 CNS; DU-145 prostate.
Common to all, as to assay: DTP human tumour cell line panel, 48 h

The structures appear in SMILES notation. Where “and” joins values, the source holds several entries; their conditions need not be identical. Equal values may be shown once.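 The compound was tested at five concentrations on cells cultured in 96-well plates, with a 48-hour exposure period. The concentration for 50% growth inhibition is given as GI50. TGI marks complete inhibition of growth.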 A value given as a limit tells only on which side of the number the result lay.

The term TGI denotes the concentration at which net growth stops. A higher TGI goes with less potent growth arrest. For `O=C(CC(c1ccccc1)c1c(O)c2ccccc2oc1=O)c1ccccc1` (stereo not drawn), the TGI in the test on MDA-MB-435, in the test on 786-0 renal, in the test with HL-60(TB) leukemia, with TK-10 renal, in the test on IGROV1 ovarian and with OVCAR-8 ovarian was more than 100 µM each time. The TGI in the test with HCT-15 colon, in the test with SR leukemia, with SF-295 CNS and with DU-145 prostate was more than 100 µM throughout.

As a reminder, the GI50 is the concentration at which growth is held to half of that of the control. With `Cc1cnc(NC(=O)Nc2cc(Br)c(C)cc2OC[C@@H]2CNCCO2)cn1`, the GI50 is 0.459 µM and 0.378 µM in the test on MDA-MB-435; 0.417 µM and 0.353 µM in the test with 786-0 renal; 0.388 µM and 0.545 µM with HL-60(TB) leukemia; 0.703 µM and 2.18 µM with TK-10 renal; 0.979 µM and 1.36 µM in the test with IGROV1 ovarian; 0.666 µM and 0.664 µM with OVCAR-8 ovarian. The GI50 is 1.65 µM and 2.38 µM in the test on HCT-15 colon; 0.306 µM and 0.196 µM in the test on SR leukemia; 0.326 µM and 0.263 µM in the test with SF-295 CNS; 2.08 µM and 0.659 µM in the test on DU-145 prostate. In addition, the TGI in the test on MDA-MB-435 was 3.58 µM and 2.43 µM; in the test on 786-0 renal it was > 10 µM and 5 µM; in the test on HL-60(TB) leukemia it was 5.46 µM and 2.43 µM; in the test on TK-10 renal it was > 10 µM and 16.6 µM; in the test on IGROV1 ovarian it was > 10 µM and 17 µM; in the test on OVCAR-8 ovarian, > 10 µM and 12.8 µM. For the same compound, the TGI in the test with HCT-15 colon is > 10 µM and 12.8 µM; with SR leukemia it was 1.66 µM and 3.72 µM; in the test with SF-295 CNS it was > 10 µM and 3.02 µM; with DU-145 prostate, > 10 µM and 11.5 µM.

Turning to `Cc1ccc(C)c2c1C(O)(C#Cc1ccccc1)c1ccccc1C2(O)C#Cc1ccccc1` (stereo not drawn), the GI50 was 2.42 µM in the test on MDA-MB-435; 3.72 µM in the test on 786-0 renal; 4.04 µM in the test on HL-60(TB) leukemia; 3.68 µM with TK-10 renal; 3.05 µM in the test with IGROV1 ovarian; 3.82 µM with OVCAR-8 ovarian. Also, the GI50 in the test on HCT-15 colon is 1.03 µM; with SR leukemia it was 2.52 µM; in the test on SF-295 CNS, 2.91 µM; in the test with DU-145 prostate, 3.32 µM. Also, the TGI was 16.2 µM in the test on MDA-MB-435; more than 35.7 µM in the test on 786-0 renal; more than 100 µM in the test on HL-60(TB) leukemia; more than 100 µM in the test on TK-10 renal; 51.3 µM in the test on IGROV1 ovarian; more than 100 µM in the test on OVCAR-8 ovarian. The TGI in the test on HCT-15 colon, with SR leukemia, in the test on SF-295 CNS and in the test with DU-145 prostate was more than 100 µM in each case.

Turning to `CN[C@H]1C=C[C@@H]2/C=C(C)/C=C/[C@@H](C)[C@H]([C@H](C)[C@H](O)[C@@H](C)NC(C)=O)OC(=O)/C=C/C=C(C)\C=C\[C@]2(C)C1`, the concentration for 50% growth inhibition (GI50) is < 0.001 µM and 0.0049 µM in the test on MDA-MB-435; 0.00836 µM with 786-0 renal; 0.0332 µM in the test on HL-60(TB) leukemia; 0.0611 µM and 0.259 µM with TK-10 renal; 0.0049 µM in the test with IGROV1 ovarian; 0.00922 µM with OVCAR-8 ovarian. Besides, the GI50 in the test with HCT-15 colon was 0.0906 µM and 0.0814 µM; in the test on SR leukemia, < 0.001 µM and 0.0049 µM; with SF-295 CNS it was < 0.001 µM and 0.0049 µM. Also, the TGI was 9.14 µM in the test on MDA-MB-435; more than 49 µM with 786-0 renal; 35.7 µM in the test with HL-60(TB) leukemia; more than 49 µM in the test with TK-10 renal; more than 49 µM in the test on IGROV1 ovarian; more than 49 µM with OVCAR-8 ovarian. Besides, the concentration for total growth inhibition (TGI) in the test with HCT-15 colon, in the test with SR leukemia and with DU-145 prostate was more than 49 µM in each case.

Take `CN(C)CCCOc1ccc(-c2ccc3ncc4c(c3c2)n(C2CCOCC2)c(=O)n4C)cn1`: the GI50 in the test on MDA-MB-435 is 1.65 µM; in the test with 786-0 renal, 1.74 µM; in the test with HL-60(TB) leukemia it was 2.48 µM; in the test with TK-10 renal it was 0.286 µM; in the test on IGROV1 ovarian it was 0.454 µM; in the test with OVCAR-8 ovarian it was 3.24 µM. The GI50 in the test on HCT-15 colon was 3.08 µM; in the test with SR leukemia, 3.01 µM; with SF-295 CNS it was 1.29 µM; in the test with DU-145 prostate, 2.37 µM. For the same compound, the TGI came out at 11.3 µM in the test on MDA-MB-435; 12.1 µM in the test on 786-0 renal; 15.9 µM in the test with HL-60(TB) leukemia; 2.91 µM with TK-10 renal; 5.6 µM in the test on IGROV1 ovarian; 17.2 µM with OVCAR-8 ovarian. Further, the TGI in the test with HCT-15 colon stood at 18 µM; with SR leukemia, 15.6 µM; in the test with SF-295 CNS, 7.81 µM; in the test with DU-145 prostate it was 17.2 µM.

`CC(C)CCC(=O)c1ccoc1`: the TGI in the test with MDA-MB-435, in the test on 786-0 renal, in the test with HL-60(TB) leukemia, in the test on TK-10 renal, in the test with IGROV1 ovarian and in the test on OVCAR-8 ovarian was more than 100 µM each time. Further, the TGI in the test with HCT-15 colon, in the test on SR leukemia, with SF-295 CNS and in the test on DU-145 prostate was more than 100 µM in each case.

Regarding `COC(=O)c1c2c(c[n+]([O-])c1C)C(=O)C=CC2=O`, the GI50 in the test on MDA-MB-435 is 1.68 µM; with 786-0 renal, 2.56 µM; in the test with HL-60(TB) leukemia, 2.13 µM; in the test with TK-10 renal, 2.99 µM; in the test with IGROV1 ovarian it was 2.11 µM; in the test on OVCAR-8 ovarian, 2.93 µM. Further, the GI50 is 1.78 µM with HCT-15 colon, 2.72 µM with SR leukemia, 3.43 µM in the test on SF-295 CNS and 1.85 µM in the test with DU-145 prostate. For the same compound, the TGI with MDA-MB-435 came to 3.15 µM; with 786-0 renal it was 6.39 µM; in the test with HL-60(TB) leukemia it was 5.75 µM; in the test on TK-10 renal it was 9.57 µM; in the test with IGROV1 ovarian, 4.54 µM; with OVCAR-8 ovarian it was 10.8 µM. For the same compound, the TGI was 3.51 µM in the test with HCT-15 colon, more than 100 µM with SR leukemia, 13.2 µM with SF-295 CNS and 3.54 µM in the test on DU-145 prostate.

Consider `C=C(C)C(=O)O[C@H]1C[C@@]23O[C@@H]2CCC(=C[C@H]2OC(=O)C(=C)[C@H]12)COC3O` (stereo partly drawn), for which the TGI in the test on MDA-MB-435 was more than 100 µM; in the test on 786-0 renal, more than 100 µM; in the test on HL-60(TB) leukemia, 48.3 µM; in the test on TK-10 renal, more than 100 µM; with IGROV1 ovarian, more than 100 µM; with OVCAR-8 ovarian it was more than 100 µM. Further, the TGI is 43.5 µM in the test with HCT-15 colon, 95.1 µM with SR leukemia, more than 100 µM in the test with SF-295 CNS and more than 100 µM in the test on DU-145 prostate.

As to `COC(=O)CCc1c[nH]c2ccc(N(CCCl)CCCl)cc12`, the GI50 with MDA-MB-435 was 8.98 µM; in the test on 786-0 renal, 0.856 µM; in the test with HL-60(TB) leukemia it was 0.429 µM; with TK-10 renal it was 4.82 µM; in the test with IGROV1 ovarian, 6.45 µM; in the test with OVCAR-8 ovarian, 3.05 µM. Moreover, the GI50 with HCT-15 colon was 3.16 µM; with SR leukemia, 0.416 µM; in the test on SF-295 CNS, 0.826 µM; in the test on DU-145 prostate it was 2.27 µM. Also, the TGI was 25.9 µM in the test with MDA-MB-435; more than 20.7 µM in the test with 786-0 renal; more than 100 µM with HL-60(TB) leukemia; 66 µM with TK-10 renal; more than 57.7 µM with IGROV1 ovarian; more than 60.5 µM in the test on OVCAR-8 ovarian. The TGI in the test on HCT-15 colon was more than 59.3 µM; with SR leukemia, more than 100 µM; in the test on SF-295 CNS it was more than 58.8 µM; with DU-145 prostate it was more than 100 µM.

For `COC(=O)[C@@H](C)C[C@H](Cc1ccccc1)NC(=O)c1csc(CC[C@H](C(C)C)N(C)C(=O)[C@@H](NC(=O)[C@H]2CCCCN2C)C(C)C)n1`, the GI50 in the test with MDA-MB-435 is 0.0407 µM; in the test with 786-0 renal, 0.382 µM; in the test with HL-60(TB) leukemia, 0.0799 µM; with TK-10 renal it was more than 15.2 µM; in the test with IGROV1 ovarian it was 0.291 µM; with OVCAR-8 ovarian it was 0.465 µM. The GI50 is 0.604 µM in the test on HCT-15 colon, 0.0686 µM in the test with SR leukemia, 0.334 µM in the test on SF-295 CNS and 0.303 µM in the test on DU-145 prostate. Also, the total growth inhibition concentration (TGI) in the test on MDA-MB-435 was 0.17 µM; in the test with 786-0 renal, more than 30.2 µM; with HL-60(TB) leukemia, 0.298 µM; in the test on TK-10 renal, more than 33.3 µM; with IGROV1 ovarian, more than 33.3 µM; with OVCAR-8 ovarian, more than 33.3 µM. In addition, the TGI with HCT-15 colon was more than 33.3 µM; with SR leukemia, more than 33.3 µM; with SF-295 CNS, more than 33.3 µM; in the test on DU-145 prostate it was more than 19.7 µM.

`O=c1c(Oc2ccc(F)cc2F)cc2cnc(NC3CCOCC3)nc2n1CCCO`: the GI50 with MDA-MB-435, in the test on 786-0 renal, with HL-60(TB) leukemia, in the test with TK-10 renal, with IGROV1 ovarian and with OVCAR-8 ovarian was more than 25 µM throughout. The GI50 in the test with HCT-15 colon, in the test with SR leukemia, with SF-295 CNS and with DU-145 prostate was more than 25 µM in each case. The total growth inhibition concentration (TGI) in the test with MDA-MB-435, in the test with 786-0 renal, with HL-60(TB) leukemia, with TK-10 renal, with IGROV1 ovarian and in the test on OVCAR-8 ovarian was more than 25 µM each time. Moreover, the TGI with HCT-15 colon, in the test on SR leukemia, in the test with SF-295 CNS and with DU-145 prostate was more than 25 µM throughout.

Take `C#Cc1cccc(N2C(=O)CCC2=O)c1`: the TGI was determined as 31.2 µM in the test with MDA-MB-435; 40.5 µM with 786-0 renal; 10.4 µM with HL-60(TB) leukemia; 29.9 µM in the test on TK-10 renal; 37.9 µM in the test with IGROV1 ovarian; 36.1 µM in the test with OVCAR-8 ovarian. Further, the TGI is 50 µM in the test with HCT-15 colon, 4.74 µM in the test on SR leukemia, 30.1 µM in the test on SF-295 CNS and 28.3 µM with DU-145 prostate.
